Experimental data as given in patent US7259188B2, “Methods and pharmaceutical compositions for treatment of anti-estrogen resistant breast cancer using RXR modulators” (priority 1998, dated 2007).
Read-outs that look alike come from different tables or passages of the source.

Tests used:
RXRβ = biological target: T1, RXRβ (UniProt P28704); assay type: cell-based
T1 sequence (P28704 1-520): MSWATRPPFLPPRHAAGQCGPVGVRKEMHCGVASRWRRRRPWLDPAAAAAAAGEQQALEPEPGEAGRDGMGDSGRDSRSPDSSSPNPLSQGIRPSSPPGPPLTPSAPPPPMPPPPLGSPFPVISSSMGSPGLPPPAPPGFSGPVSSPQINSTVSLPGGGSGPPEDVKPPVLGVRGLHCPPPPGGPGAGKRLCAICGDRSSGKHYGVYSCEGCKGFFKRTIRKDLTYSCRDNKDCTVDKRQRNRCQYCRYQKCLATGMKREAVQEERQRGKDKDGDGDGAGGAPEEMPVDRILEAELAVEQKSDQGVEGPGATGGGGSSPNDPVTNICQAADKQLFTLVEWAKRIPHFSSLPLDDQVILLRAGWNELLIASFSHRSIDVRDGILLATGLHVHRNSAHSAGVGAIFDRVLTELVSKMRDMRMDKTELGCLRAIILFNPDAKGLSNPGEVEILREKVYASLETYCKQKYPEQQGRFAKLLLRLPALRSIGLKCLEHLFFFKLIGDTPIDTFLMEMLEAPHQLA
From the text: Briefly, the co-transfection assay involves the introduction of two plasmids by transient transfection into a retinoid receptor-negative mammalian cell background. The first plasmid contains a retinoid receptor cDNA and directs constitutive expression of the encoded receptor. The second plasmid contains a cDNA that encodes for a readily quantifiable protein, e.g., firefly luciferase or chloramphenicol acetyl transferase (CAT), under control of a promoter containing a retinoid acid response element, which confers retinoid dependence on the transcription of the reporter. […] This assay can be used to accurately measure efficacy and potency of retinoic acid and synthetic retinoids as ligands that interact with the individual retinoid receptor subtypes.

[1] = test system: tamoxifen-resistant primary tumors; experiment: Example 1: tumor response of tamoxifen-resistant NMU-induced mammary tumors; assay type: in vivo, Sprague-Dawley rats; conditions: additional six weeks; for combined response of partial or complete regression / incidence of progressive disease / complete regression of tumors: LGD1069 100 mg/kg orally daily added to tamoxifen 800 μg/kg sc daily, versus tamoxifen alone; for complete regression of tumors: p<0.05
Experimental: (§1) Mammary tumorigenesis was induced by administration of 50 mg/kg of N-nitroso-N-methylurea (NMU) (Sigma, St. Louis, Mo.) to 50 day old virgin female Sprague-Dawley rats (Harlan-SD, Indianapolis, Ind.). […] Fresh solutions of NMU were injected within 30 minutes of preparation. The animals were injected in the tail vein with 5 mg NMU/100 g body weight. Rats were housed in a USDA registered facility in accordance with NIH guidelines for the care and use of laboratory animals. […] Beginning five weeks after tumor induction, animals were examined for tumors twice a week. Tumors were measured with electronic calipers (Mitushoyo, Japan) and cross sectional areas were determined by multiplying the longest length of the tumor by the greatest perpendicular width of the tumor.

[2] = test system: tumors that grew in the presence of the low-dose tamoxifen; experiment: Example 2: NMU-induced tumors that grew in the presence of low-dose tamoxifen; conditions: LGD1069 100 mg/kg PO added to low-dose tamoxifen therapy, compared to treatment with tamoxifen (800 μg/kg SC)
[3] = test system: established mammary tumors; experiment: Example 3: established NMU-induced mammary tumors, six weeks of treatment; assay type: in vivo, Sprague-Dawley rats; conditions: for tumors completely regressed / tumors continued to progress / tumors partially regressed: LGD1069 100 mg/kg or tamoxifen 800 μg/kg
Experimental: Mammary tumorigenesis was induced by administration of 50 mg/kg of N-nitroso-N-methylurea (NMU) (Sigma, St. Louis, Mo.) to 50 day old virgin female Sprague-Dawley rats (Harlan-SD, Indianapolis, Ind.). NMU was formulated as an aqueous solution of 10 mg/ml by wetting NMU powder with 3% acetic acid and dissolving it in sterile saline. Fresh solutions of NMU were injected within 30 minutes of preparation. The animals were injected in the tail vein with 5 mg NMU/100 g body weight. Rats were housed in a USDA registered facility in accordance with NIH guidelines for the care and use of laboratory animals. […] Beginning five weeks after tumor induction, animals were examined for tumors twice a week. Tumors were measured with electronic calipers (Mitushoyo, Japan) and cross sectional areas were determined by multiplying the longest length of the tumor by the greatest perpendicular width of the tumor.

primary mammary tumors = experiment: Example 4: NMU-induced mammary tumors, submaximally efficacious doses alone and coadministered; assay type: in vivo, Sprague-Dawley rats; conditions: for primary mammary tumors regressed: single agent at submaximally efficacious dose: LGD1069 10 mg/kg, tamoxifen 150 mg/kg
Experimental: as §1

[4] = test system: mammary carcinoma development; conditions: NMU-treated rat, compared with tamoxifen; cited from earlier work
[5] = test system: estrogen receptor positive breast cancers; conditions: patients, tamoxifen treatment; cited from earlier work

## CC1=C(/C=C/C(C)=C\C=C\C(C)=C\C(=O)O)C(C)(C)CCC1 [9-cis-retinoic acid, reference compound]
RXRβ; RXRβ, co-transfection assay
  Efficacy: 140%

## Cc1cc2c(cc1/C(=N/O)c1ccc(C(=O)O)cc1)C(C)(C)CCC2(C)C [LDG100324]
RXRβ
  Efficacy: 51%
RXRβ; read-out: Potency
  EC50: 8 nM

## C=C(c1ccc(C(=O)O)cc1)c1cc2c(cc1C)C(C)(C)CCC2(C)C [LGD1069]
[1]
  combined response of partial or complete regression: more than 90%
  incidence of progressive disease: 3%
  complete regression of tumors: 56%
[1]; LGD1069 100 mg/kg orally daily added to tamoxifen, compared with tamoxifen alone
  incidence of stable disease: reduced the incidence
[2]
  amount of progressive disease: significantly reduced the amount of progressive disease
[3]; LGD1069 100 mg/kg daily for six weeks, compared with tamoxifen 800 μg/kg
  antitumor efficacy on established mammary tumors: greater efficacy than treatment with tamoxifen
[3]; daily for six weeks
  tumors completely regressed: 72.2%
  tumors continued to progress: 11.1%
  tumors partially regressed: 16.7%
Primary mammary tumors; LGD1069 10 mg/kg coadministered with tamoxifen 150 mg/kg
  tumors completely regressing: 26.3%
Primary mammary tumors
  primary mammary tumors regressed: 10.5%
[4]
  inhibiting mammary carcinoma development (chemopreventive): as effective as the anti-estrogen tamoxifen

## CC/C(=C(\c1ccccc1)c1ccc(OCCN(C)C)cc1)c1ccccc1 [tamoxifen, reference compound]
[1]
  combined response of partial or complete regression: 44%
  incidence of progressive disease: 44%
  complete regression of tumors: 16.7%
[3]; daily for six weeks
  tumors completely regressed: 33.3%
  tumors continued to progress: 28.6%
  tumors partially regressed: 33.3%
[3]; daily for six weeks, tamoxifen 800 μg/kg
  tumors remained static: 4.8%
[5]
  estrogen receptor positive breast cancers that respond to treatment: approximately 66%
Primary mammary tumors
  primary mammary tumors regressed: 5.6%
